Assay results taken from patent US20110294772A1, “USE OF CYCLOSQUARAMIDE COMPOUNDS AS ANTI-TUMOUR AGENTS” (priority 2008, published 2011).
pIC50: −log10 of the molar value. Several values for one entry are separate records, joined by “and”; a condition that tells them apart may be missing. Equal values may be shown once.

What was measured:
VRK1 = VRK1 (Homo sapiens, UniProt Q99986); assay: in vitro kinase assay; type: biochemical
Procedure: (§1) Specifically, against a panel of 210 kinases representative of the human kinome, the compounds tested inhibited by […] the activity of 25 of them in in Vitro assays (Table 1).
(§2) The IC50 was determined for the most sensitive kinases to compound 10, obtaining values for said parameter, largely in the micromolar range. For this purpose, the 25 kinases inhibited more than 80% by the compound in in vitro assays were selected.

ABL1 = ABL1 (Homo sapiens, UniProt P00519); assay: in vitro kinase assay; type: biochemical
Procedure: as §1, §2

PLK1 = PLK1 (Homo sapiens, UniProt P53350); assay: in vitro kinase assay; type: biochemical
Procedure: as §1, §2

ACK1 = ACK1 (Homo sapiens, UniProt Q07912); assay: in vitro kinase assay; type: biochemical
Procedure: as §1, §2

CDK9/CycT = CDK9/CycT (Homo sapiens, UniProt P50750); assay: in vitro kinase assay; type: biochemical
Chain of CDK9/CycT (P50750 whole entry): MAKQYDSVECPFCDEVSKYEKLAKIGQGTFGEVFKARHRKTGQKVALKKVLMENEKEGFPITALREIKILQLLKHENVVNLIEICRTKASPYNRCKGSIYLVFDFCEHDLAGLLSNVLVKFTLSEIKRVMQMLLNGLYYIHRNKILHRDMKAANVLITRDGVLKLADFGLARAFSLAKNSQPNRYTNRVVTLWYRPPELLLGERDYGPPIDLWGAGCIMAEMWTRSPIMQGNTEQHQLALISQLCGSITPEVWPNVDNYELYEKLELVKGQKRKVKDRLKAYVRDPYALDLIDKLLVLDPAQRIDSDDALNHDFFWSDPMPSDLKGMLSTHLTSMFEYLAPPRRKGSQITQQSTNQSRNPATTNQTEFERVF
Chain of CDK9/CycT (O60563 whole entry partner): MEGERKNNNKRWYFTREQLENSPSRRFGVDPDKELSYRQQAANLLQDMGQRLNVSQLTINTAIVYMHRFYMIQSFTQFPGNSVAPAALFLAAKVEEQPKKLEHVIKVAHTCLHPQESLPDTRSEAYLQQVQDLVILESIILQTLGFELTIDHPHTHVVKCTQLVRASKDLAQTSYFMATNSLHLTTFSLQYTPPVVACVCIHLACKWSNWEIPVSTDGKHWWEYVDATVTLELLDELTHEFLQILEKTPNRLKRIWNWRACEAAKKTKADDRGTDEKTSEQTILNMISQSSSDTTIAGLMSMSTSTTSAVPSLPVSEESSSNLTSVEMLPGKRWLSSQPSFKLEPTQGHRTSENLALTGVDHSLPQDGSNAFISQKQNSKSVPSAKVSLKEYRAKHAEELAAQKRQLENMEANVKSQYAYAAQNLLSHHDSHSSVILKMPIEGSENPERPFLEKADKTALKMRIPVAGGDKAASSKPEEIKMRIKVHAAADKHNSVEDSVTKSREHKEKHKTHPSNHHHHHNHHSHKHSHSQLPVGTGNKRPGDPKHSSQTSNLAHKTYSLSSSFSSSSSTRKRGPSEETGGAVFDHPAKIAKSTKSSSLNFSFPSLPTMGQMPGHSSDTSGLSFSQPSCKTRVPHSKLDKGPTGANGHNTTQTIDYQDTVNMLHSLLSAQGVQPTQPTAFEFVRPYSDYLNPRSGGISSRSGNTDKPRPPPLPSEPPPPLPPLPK
Procedure: as §1, §2

S6K = S6K (Homo sapiens, UniProt P23443); assay: in vitro kinase assay; type: biochemical
Procedure: as §1, §2

PAK4 = PAK4 (Homo sapiens, UniProt O96013); assay: in vitro kinase assay; type: biochemical
Chain of PAK4 (O96013 whole entry): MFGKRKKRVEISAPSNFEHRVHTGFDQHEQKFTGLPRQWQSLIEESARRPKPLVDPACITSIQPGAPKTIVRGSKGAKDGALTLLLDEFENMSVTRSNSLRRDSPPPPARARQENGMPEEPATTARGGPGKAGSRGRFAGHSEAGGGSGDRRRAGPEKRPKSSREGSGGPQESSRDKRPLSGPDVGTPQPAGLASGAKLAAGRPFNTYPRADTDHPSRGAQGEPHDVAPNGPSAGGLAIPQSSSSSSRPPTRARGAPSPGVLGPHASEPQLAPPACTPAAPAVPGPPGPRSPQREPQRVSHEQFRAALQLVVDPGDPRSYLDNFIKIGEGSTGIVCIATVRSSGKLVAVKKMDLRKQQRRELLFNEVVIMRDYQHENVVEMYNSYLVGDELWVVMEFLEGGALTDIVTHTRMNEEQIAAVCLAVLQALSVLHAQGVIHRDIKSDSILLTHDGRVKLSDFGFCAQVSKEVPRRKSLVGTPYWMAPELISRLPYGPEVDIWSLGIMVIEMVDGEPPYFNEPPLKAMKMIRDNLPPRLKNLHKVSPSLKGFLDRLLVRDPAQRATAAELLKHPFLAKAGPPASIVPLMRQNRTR
Procedure: as §1, §2

PKC-alpha = PKC-alpha (Homo sapiens, UniProt P17252); assay: in vitro kinase assay; type: biochemical
Procedure: as §1, §2

NLK = NLK (Homo sapiens, UniProt Q9UBE8); assay: in vitro kinase assay; type: biochemical
Procedure: as §1, §2

PKC-gamma = PKC-gamma (Homo sapiens, UniProt P05129); assay: in vitro kinase assay; type: biochemical
Procedure: as §1, §2

CDK7/CycH/Mat1 = CDK7/CycH/Mat1 (Homo sapiens, UniProt P50613); assay: in vitro kinase assay; type: biochemical
Procedure: as §1, §2

MUSK = MUSK (Homo sapiens, UniProt O15146); assay: in vitro kinase assay; type: biochemical
Procedure: as §1, §2

PAK7 = PAK7 (Homo sapiens, UniProt Q9P286); assay: in vitro kinase assay; type: biochemical
Procedure: as §1, §2

CDK5/p25NCK = CDK5/p25NCK (Homo sapiens, UniProt Q00535); assay: in vitro kinase assay; type: biochemical
Chain of CDK5/p25NCK (Q00535 whole entry): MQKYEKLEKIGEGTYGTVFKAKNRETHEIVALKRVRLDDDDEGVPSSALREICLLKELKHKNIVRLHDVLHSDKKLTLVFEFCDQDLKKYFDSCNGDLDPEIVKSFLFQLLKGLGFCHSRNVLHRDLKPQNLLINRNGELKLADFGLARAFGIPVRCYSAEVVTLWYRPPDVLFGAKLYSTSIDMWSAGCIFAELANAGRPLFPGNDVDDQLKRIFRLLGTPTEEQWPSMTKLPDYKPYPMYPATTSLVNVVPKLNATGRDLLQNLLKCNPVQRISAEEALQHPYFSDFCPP
Chain of CDK5/p25NCK (Q15078 99-307 partner limits assumed): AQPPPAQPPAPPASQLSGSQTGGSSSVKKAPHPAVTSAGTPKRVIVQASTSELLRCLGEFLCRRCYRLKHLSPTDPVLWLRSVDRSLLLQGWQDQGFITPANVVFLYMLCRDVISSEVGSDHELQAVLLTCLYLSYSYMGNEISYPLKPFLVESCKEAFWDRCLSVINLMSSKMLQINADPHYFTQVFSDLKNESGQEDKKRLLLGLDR
Procedure: as §1, §2

CHK1 = CHK1 (Homo sapiens, UniProt O14757); assay: in vitro kinase assay; type: biochemical
Procedure: as §1, §2

TRK-C = TRK-C (Homo sapiens, UniProt Q16288); assay: in vitro kinase assay; type: biochemical
Chain of TRK-C (Q16288 32-839): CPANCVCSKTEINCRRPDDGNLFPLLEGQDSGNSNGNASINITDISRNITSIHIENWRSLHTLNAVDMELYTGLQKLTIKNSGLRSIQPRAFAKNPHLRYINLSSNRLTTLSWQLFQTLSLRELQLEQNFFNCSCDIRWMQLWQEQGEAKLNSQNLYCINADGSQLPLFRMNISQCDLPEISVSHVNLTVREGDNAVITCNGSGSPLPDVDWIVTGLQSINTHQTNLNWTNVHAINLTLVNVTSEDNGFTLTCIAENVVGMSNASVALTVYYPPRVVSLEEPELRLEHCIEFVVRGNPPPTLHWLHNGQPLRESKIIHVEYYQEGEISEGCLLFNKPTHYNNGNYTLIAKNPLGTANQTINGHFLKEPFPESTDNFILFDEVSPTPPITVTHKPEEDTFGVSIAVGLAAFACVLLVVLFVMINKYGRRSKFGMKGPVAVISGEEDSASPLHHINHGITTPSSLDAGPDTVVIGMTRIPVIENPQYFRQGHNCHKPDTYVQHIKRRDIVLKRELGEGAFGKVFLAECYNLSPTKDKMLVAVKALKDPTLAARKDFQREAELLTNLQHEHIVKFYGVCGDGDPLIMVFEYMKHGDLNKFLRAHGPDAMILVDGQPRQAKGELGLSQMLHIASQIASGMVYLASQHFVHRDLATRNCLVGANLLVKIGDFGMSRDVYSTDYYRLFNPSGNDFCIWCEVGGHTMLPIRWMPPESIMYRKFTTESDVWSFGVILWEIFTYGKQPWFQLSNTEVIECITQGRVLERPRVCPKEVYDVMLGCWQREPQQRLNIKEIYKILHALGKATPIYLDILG
Procedure: as §1, §2

MET = MET (Homo sapiens, UniProt P08581); assay: in vitro kinase assay; type: biochemical
Procedure: as §1, §2

CSK = CSK (Homo sapiens, UniProt P41240); assay: in vitro kinase assay; type: biochemical
Chain of CSK (P41240 whole entry): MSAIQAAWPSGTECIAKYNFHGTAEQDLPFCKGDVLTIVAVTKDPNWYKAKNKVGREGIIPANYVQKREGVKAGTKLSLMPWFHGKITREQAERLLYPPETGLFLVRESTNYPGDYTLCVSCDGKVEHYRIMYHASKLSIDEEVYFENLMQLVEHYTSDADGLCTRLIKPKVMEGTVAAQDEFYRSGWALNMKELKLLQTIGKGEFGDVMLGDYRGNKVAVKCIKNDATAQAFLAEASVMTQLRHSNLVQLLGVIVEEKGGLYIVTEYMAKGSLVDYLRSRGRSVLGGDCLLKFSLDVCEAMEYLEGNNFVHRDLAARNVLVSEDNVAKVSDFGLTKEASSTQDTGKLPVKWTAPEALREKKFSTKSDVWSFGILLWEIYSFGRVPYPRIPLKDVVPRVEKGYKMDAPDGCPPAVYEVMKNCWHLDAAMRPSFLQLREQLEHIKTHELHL
Procedure: as §1, §2

FGF-R1 VM = FGF-R1 VM (Homo sapiens, UniProt P11362, V561M); assay: in vitro kinase assay; type: biochemical
Procedure: as §1, §2

TGFB-R1 = TGFB-R1 (Homo sapiens, UniProt P36897); assay: in vitro kinase assay; type: biochemical
Procedure: as §1, §2

FGF-R2 = FGF-R2 (Homo sapiens, UniProt P21802); assay: in vitro kinase assay; type: biochemical
Procedure: as §1, §2

PKC-beta1 = PKC-beta1 (Homo sapiens, UniProt P05771); assay: in vitro kinase assay; type: biochemical
Procedure: as §1, §2

CDK4/CycD3 = CDK4/CycD3 (Homo sapiens, UniProt P11802); assay: in vitro kinase assay; type: biochemical
Chain of CDK4/CycD3 (P11802 whole entry): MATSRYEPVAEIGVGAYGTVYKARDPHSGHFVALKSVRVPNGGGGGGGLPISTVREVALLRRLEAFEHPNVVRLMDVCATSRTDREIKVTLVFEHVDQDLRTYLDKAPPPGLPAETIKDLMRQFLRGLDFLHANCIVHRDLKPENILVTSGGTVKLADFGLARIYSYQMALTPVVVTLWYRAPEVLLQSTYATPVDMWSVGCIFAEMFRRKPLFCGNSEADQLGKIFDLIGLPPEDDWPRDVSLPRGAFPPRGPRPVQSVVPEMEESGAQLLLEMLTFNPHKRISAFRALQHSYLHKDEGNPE
Chain of CDK4/CycD3 (P30281 whole entry partner): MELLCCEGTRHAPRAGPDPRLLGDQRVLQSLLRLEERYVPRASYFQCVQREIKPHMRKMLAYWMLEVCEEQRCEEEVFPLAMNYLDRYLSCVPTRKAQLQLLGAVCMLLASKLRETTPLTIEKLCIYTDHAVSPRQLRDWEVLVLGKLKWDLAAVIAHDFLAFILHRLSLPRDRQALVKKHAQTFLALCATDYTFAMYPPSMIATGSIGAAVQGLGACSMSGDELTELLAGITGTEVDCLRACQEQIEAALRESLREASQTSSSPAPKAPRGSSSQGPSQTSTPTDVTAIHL
Procedure: as §1, §2

U87 = assay: cell viability assay; type: cell-based, human; settings: U87 glioblastoma, 72 h, with respect to untreated control cells
Rec-1 = assay: cell viability assay; type: cell-based, human; settings: Rec-1 B-cell lymphoma (MCL), 48 h, with respect to untreated control cells
Karpas-45 = assay: cell viability assay; type: cell-based, human; settings: Karpas-45 T-cell lymphoma, 72 h, with respect to untreated control cells
[1] = system: panel of NCl60 cell lines; assay: IC50 in NCI60 panel (overall); type: cell-based; settings: Homo sapiens, general order, read-out: antitumor activity (IC50) in general
Procedure: (§3) On the other hand, the values of IC50 were determined in the panel of NCl60 cell lines for compound 10.
(§4) A total of 2 independent experiments were carried out with assays in triplicate for the compound and cell line. All those assays where an IC50 value was not reached in the highest concentration of 1E-05 M are represented by “>1E-05”. In these cases, the standard deviation cannot be calculated and for that reason it is calculated as “-”.

HT-29 (Colon) = assay: NCI60 panel IC50; type: cell-based, human
Procedure: as §3, §4

786-O (Renal) = assay: NCI60 panel IC50; type: cell-based, human
Procedure: as §3, §4

LOX-IMVI (Melanoma) = assay: NCI60 panel IC50; type: cell-based, human
Procedure: as §3, §4

OVCAR-5 (Ovarian) = assay: NCI60 panel IC50; type: cell-based, human
Procedure: as §3, §4

SK-MEL-28 (Melanoma) = assay: NCI60 panel IC50; type: cell-based, human
Procedure: as §3, §4

JVM-2 = assay: cell viability assay; type: cell-based, human; settings: JVM-2 B-cell lymphoma (MCL), 48 h, with respect to untreated control cells

CN1CCCNc2c(c(=O)c2=O)NCCCN(C)CCCNc2c(c(=O)c2=O)NCCCN(C)CCCNc2c(c(=O)c2=O)NCCCN(C)CCCNc2c(c(=O)c2=O)NCCCN(C)CCCNc2c(c(=O)c2=O)NCCC1 [Compound 10]
pIC50 (VRK1): 5.62
pIC50 (ABL1): 5.27
pIC50 (PLK1): 4.59
inhibition of kinase Ack1 (ACK1): 85%
inhibition of kinase cdk9 (CDK9/CycT; in vitro kinase assay): 87%
pIC50 (CDK9/CycT; kinase CDK9/CycT, in vitro): 5.43
pIC50 (S6K): 5.36
pIC50 (PAK4): 5.37
pIC50 (PKC-alpha): 5.64
pIC50 (NLK): 5.37
pIC50 (PKC-gamma): 5.24 and 5.31
pIC50 (CDK7/CycH/Mat1): 4.55
pIC50 (MUSK): 5.82
pIC50 (PAK7): 5.31
inhibition of kinase cdk5 (CDK5/p25NCK; in vitro kinase assay): 80%
pIC50 (CDK5/p25NCK; kinase CDK5/p25NCK, in vitro): 5.04
pIC50 (CHK1): 5.85
pIC50 (TRK-C): 5.14 and 5.18
pIC50 (MET): 5.43
pIC50 (CSK): 4.89 and 5.14
pIC50 (FGF-R1 VM): 5.59
pIC50 (TGFB-R1): 5.48
pIC50 (FGF-R2): 5.27
pIC50 (PKC-beta1): 5.12
pIC50 (CDK4/CycD3): 5.27 and 5.28
% Cell viability (U87): 25%
% Cell viability (Rec-1): 44%
% Cell viability (Karpas-45): 13%
pIC50 [1]: 5.00 to 6.00
pIC50 (HT-29 (Colon); Homo sapiens, HT-29 (Colon), NCI60 panel, highest concentration 1E-05 M): < 5.00
sensitivity of the line to the tested compound (HT-29 (Colon); colon HT-29): resistant
pIC50 (786-O (Renal); Homo sapiens, 786-0, 786-O (Renal), NCI60 panel, highest concentration 1E-05 M): < 5.00
sensitivity of the line to the tested compound (786-O (Renal); renal 786-O): resistant
pIC50 (LOX-IMVI (Melanoma); Homo sapiens, LOX-IMVI (Melanoma), NCI60 panel, highest concentration 1E-05 M): < 5.00
sensitivity of the line to the tested compound (LOX-IMVI (Melanoma); melanoma LOX-IMVI): resistant
pIC50 (OVCAR-5 (Ovarian); Homo sapiens, OVCAR-5 (Ovarian), NCI60 panel, highest concentration 1E-05 M): < 5.00
sensitivity of the line to the tested compound (OVCAR-5 (Ovarian); ovarian OVCAR-5): resistant
pIC50 (SK-MEL-28 (Melanoma); Homo sapiens, SK-MEL-28 (Melanoma), NCI60 panel, highest concentration 1E-05 M): < 5.00
sensitivity of the line to the tested compound (SK-MEL-28 (Melanoma); melanoma SK-MEL-28): resistant
% Cell viability (JVM-2): 24%
